Experimental data reported in patent US8741319B2, “Methods and compositions for treating anxiety disorders or symptoms thereof” (Pondera Biotechnologies Inc., priority 2009, dated 2014).
“Also recorded” adds a separate entry of the source.

What was measured:
[1] = tested on: humans; test: Hot-water finger-immersion induced pain trials (Example 1); format: in vivo, human; details: for side effects / complaints, second phase: 60 subjects, caffeine 50 mg, theophylline 300 mg, ULDN 5 μg, magnesium sulfate 750 mg, alone or combined; for undesirable side effects, first phase: 18 subjects, rolipram 50 μg, forskolin 200 mg, magnesium sulfate 2 g/5 g, caffeine 200 mg, each given within two-agent formulations; for pain thresholds and tolerance as compared to baseline latencies: index finger in 130° F. water, single dose, not blinded as to condition
Experimental: For these trials, a hot-water finger-immersion pain paradigm was used, measuring both pain threshold and tolerance. The index finger of the non-dominant hand was submerged in 130° F. water, and the time to the experience of pain (threshold) and the need to withdraw (tolerance) were measured. Baseline scores were compared to those obtained under experimental conditions. Experimental conditions were not blinded for this study.
For the preliminary part of this study, 18 subjects (10 males, 8 females; ages 27-86) were given each of the following single-dose formulations on separate days, to determine the best doses for pain reduction and side-effect profiles:
The same induced pain paradigm was used for the second phase of this study. 60 subjects (38 males, 22 females, ages 18-86), including all of the subjects in the first phase of the study, participated in the study. All subjects were administered each of the following formulations in a single dose, on separate days; while 18 of these subjects (10 males, 8 females) were given these formulations using a twice daily administration over the course of 3 consecutive days. The following formulations were administered to each subject to assess the effect of each agent, as compared to baseline, as well as the synergistic impact of co-treatment: […]

[2] = tested on: patients in psychotherapy suffering from various Distress Dysfunction conditions; test: 10 month trial, agents alone vs combined, 19 psychotherapy patients (Example 5); details: for therapeutic benefits on Distress Dysfunction symptoms: 19 patients, 2 weeks per agent or formulation, agents not identified to patients
Experimental: To determine the relative benefits of administering agents alone as compared to their combined synergistic benefits, a trial was conducted over a 10 month period with 19 patients in psychotherapy suffering from various Distress Dysfunction conditions, including anxiety, obsessive-compulsive disorders, depression, drug and alcohol addictions, behavioral addictions, psychogenic and neuropathic pain, eating disorders, and sexual dysfunctions.
Over the course of 8 weeks, each patient was administered all of the individual agents. During the next 8 weeks, each patient rotated through the following formulations, each given for a 2 week period: […]
All patients already on an SSRI or SNRI continued on this medication in combination with ULDN.

[3] = tested on: outpatient psychotherapy patients with various forms of Distress Dysfunction; test: Clinical case studies, outpatient psychotherapy patients (Example 8B); format: in vivo, human; details: 5 or 125 μg once daily within formulations
Experimental: All treatment was unblinded, and explained as novel formulations for Distress Dysfunction. […] Synergistic Enhancers were often included in the formulations, particularly SSRI and SNRI medications that the patients were typically taking prior to adding the experimental formulations (about 25% of patients). For those patients already on an SSRI or SNRI, the following daily doses were used, once the patient was stabilized on the co-treatment formulation: escitalopram (10 mg, once daily), fluoxetine (20 mg, once daily), citalopram (20 mg, once daily), or venlafaxine (75 mg, once daily). For most patients, this was either the same or lower dose than previously prescribed. If the patient was not already on an SSRI or SNRI, one or more Synergistic Enhancers were added to the formulation for more serious conditions, including 5HTP (50 mg, twice daily), SAMe (200 mg, once daily), PharmaGABA (200 mg, once daily), and tyrosine (500 mg, once daily) (about 18% of patients). Ten pain patients began the treatment program using a prescription narcotic pain medication. […] As an alternative to narcotic pain medications, NSAIDs, especially white willow bark (250 mg, twice daily) were added to the formulation (about 10% of patients). […]

[4] = tested on: Healthy volunteers; test: Cold-pressor induced pain study (Example 8A); format: in vivo, human; details: 12 subjects, blinded, within-subject
Experimental: In addition to the hot-water finger immersion studies described above, two Jeio Tech cold-pressor testing units were purchased since this methodology represents the state-of-the art in induced pain research.
Following several preliminary multi-site trials using a wide variety of agents, doses, and formulations, a cold-pressor induced pain study was conducted in order to determine the impact of specific agents on the experience of pain threshold and tolerance. Healthy volunteers were recruited who were not taking any relevant medications or supplements, resulting in a total of 12 subjects (7 men, 5 women; ages 18-86). During the initial phase of this study, the following agents and doses were administered to subjects and pain threshold and tolerance latencies were assessed. […] Subjects were blinded as to each condition. Active agents were compared to each subject's baseline and placebo latencies, using a within-subject design. […]

[5] = tested on: subjects; test: Hot-water finger-immersion pain threshold/tolerance, five subjects (Example 4); format: in vivo, human; details: separate testing sessions
[6] = tested on: males with ADHD; test: Attention-Deficit Disorder case studies (Example 10); format: in vivo, human; details: for improvement of ADHD behavior and attention: single case studies (males)
Experimental: To assess the therapeutic benefit of the novel cotreatment formulations of the invention with Attention-Deficit Disorders, three ongoing case studies are being conducted, one focused on the use of stimulants and the other based on “nutriceuticals.”
A person with severe uncontrolled ADHD has had serious problems with their inappropriate behaviors, emotions, and attitudes, both at school and at home, for more than 8 years. […] NAC (600 mg, twice daily) was added to the ongoing medication. […] The young person was able to sit quietly for longer periods of time and was clearly more cooperative and socially appropriate. […] Increased improvement has been observed over the past month, and the cotreatment formulation is being continued.
A person with moderate ADHD has had difficulties paying attention at school and cooperating at home. They have never been given prescription medications for the problem, and behavioral interventions have not been successful. […] Then, NAC (600 mg, twice daily), magnesium sulfate (500 mg, twice daily), and ginkgo biloba (120 mg, once daily) were added to the ALC. […] Progress has been steadily improving, using this novel cotreatment formulation during this 3 week trial, which is ongoing.
A person with severe ADHD has had problems in all aspects of their life due to this disorder. Despite above average intelligence, they were unable to complete high school. After dropping out of school, they were able to earn a GED. Over time, they were unable to hold regular employment. […] They will continue this co-treatment formulation, given its obvious benefits.

O=C1CC[C@@]2(O)[C@H]3Cc4ccc(O)c5c4[C@@]2(CCN3CC2CC2)[C@H]1O5 [ULDN, naltrexone]
side effects / complaints, second phase [1]: had neither benefit nor side effects | therapeutic benefits on Distress Dysfunction symptoms ([2]; once daily): nearly half of the patients experienced no effect from ULDN alone | improvement in symptoms in patients on ongoing SSRI or SNRI medication ([2]; ULDN 5 μg added, patients on Lexapro, Prozac, Paxil or Effexor): 10 patients had dramatic improvement in their symptoms | consistency of benefit by naltrexone dose [3]: the benefits from using the relatively higher dose (125 micrograms) were more consistent within and among patients

COc1ccc(C2CNC(=O)C2)cc1OC1CCCC1 (centres unmarked) [Rolipram, rolipram]
undesirable side effects, first phase [1]: produced a queasy sensation for several of the subjects | side effects ([1]; one subject took 250 μg of rolipram): experienced nausea, vomiting, and diarrhea

Cn1c(=O)c2c(ncn2C)n(C)c1=O [caffeine]
undesirable side effects, first phase [1]: produced mild agitation for several subjects | side effects / complaints, second phase [1]: complained of these symptoms when given these drugs alone | pain thresholds and tolerance as compared to baseline latencies [1]: trend toward increased pain sensitivity (hyperalgesia) | pain threshold and tolerance latencies vs baseline and placebo, agents administered alone [4]: tended to result in shorter pain tolerance latencies | increased distress symptoms ([2]; agent administered alone, once daily, 2 weeks): at least half of the patients reported some degree of increased distress symptoms

COc1ccc2c3c1O[C@H]1C(=O)CC[C@@]4(O)[C@@H](C2)N(C)CC[C@]314 [oxycodone (5 mg), oxycodone]
pain threshold and tolerance latencies vs baseline and placebo, agents administered alone [4]: consistently showed this effect | pain threshold and tolerance latencies vs baseline and placebo, agents administered alone ([4]; listed as lower dose oxycodone): did not generally exhibit analgesia on the cold pressor

O=S(=O)([O-])[O-].[Mg+2] [magnesium sulfate]
undesirable side effects, first phase [1]: produced mild queasy feelings for several subjects | side effects / complaints, second phase [1]: had neither benefit nor side effects

Cn1c(=O)c2[nH]cnc2n(C)c1=O [theophylline]
side effects / complaints, second phase [1]: complained of these symptoms when given these drugs alone | pain thresholds and tolerance as compared to baseline latencies [1]: trend toward increased pain sensitivity (hyperalgesia) | pain threshold and tolerance latencies vs baseline and placebo, agents administered alone [4]: tended to result in shorter pain tolerance latencies

CC(C)Cc1ccc(C(C)C(=O)O)cc1 (centres unmarked) [ibuprophen]
pain threshold and tolerance latencies vs baseline and placebo, agents administered alone [4]: no more effective than placebo in the cold pressor paradigm

CC(=O)Nc1ccc(O)cc1 [acetaminophen]
pain threshold and tolerance latencies vs baseline and placebo, agents administered alone [4]: no more effective than placebo in the cold pressor paradigm | therapeutic benefits on Distress Dysfunction symptoms ([2]; once daily): no therapeutic benefits were reported or observed | maintenance treatment, remaining six months of the study ([2]; each patient on the formulation that worked best): used effectively by four pain patients | increased distress symptoms ([2]; human, in vivo): at least half of the patients reported some degree of increased distress symptoms | increase in pain threshold/tolerance (over baseline) [5]: in order of greatest pain relief, was (3), then (2) then (1)

N[C@@H](CCC(=O)O)C(=O)O [glutamic acid]
pain threshold and tolerance latencies vs baseline and placebo, agents administered alone [4]: showed clear hyperalgesic effects when administered alone; also recorded: tended to result in shorter pain tolerance latencies

COC(=O)C(c1ccccc1)C1CCCCN1 (centres unmarked) [methylphenidate]
side effects ([6]; single case studies): produced mild restlessness, sleep difficulties, and reduced appetite; also recorded: several undesirable side-effects, including insomnia, anorexia, and agitation | improvement of ADHD behavior and attention [6]: only modest improvements; also recorded: almost no benefit

COc1cccc(C2(O)CCCCC2CN(C)C)c1 (centres unmarked) [Tramadol, tramadol]
pain threshold and tolerance latencies vs baseline and placebo, agents administered alone [4]: did not generally exhibit analgesia on the cold pressor

CC(=O)Oc1ccccc1C(=O)O [aspirin]
pain threshold and tolerance latencies vs baseline and placebo, agents administered alone [4]: no more effective than placebo in the cold pressor paradigm | increase in pain threshold/tolerance (over baseline) [5]: showed no change in pain threshold when administered alone

C=C[C@@]1(C)CC(=O)[C@]2(O)[C@@]3(C)[C@@H](O)CCC(C)(C)[C@@H]3[C@H](O)[C@H](OC(C)=O)[C@@]2(C)O1 [Forskolin]
undesirable side effects, first phase [1]: produced mild agitation for several subjects

CC(=O)O[C@H](CC(=O)[O-])C[N+](C)(C)C [acetyl-L-carinitine]
improvement of ADHD behavior and attention [6]: no observable benefits

O=C(Nc1c(Cl)cncc1Cl)c1ccc(OC(F)F)c(OCC2CC2)c1 [roflumilast]
pain threshold and tolerance latencies vs baseline and placebo, agents administered alone [4]: showed clear hyperalgesic effects when administered alone; also recorded: tended to result in shorter pain tolerance latencies | therapeutic benefits on Distress Dysfunction symptoms ([2]; once daily): no therapeutic benefits were reported or observed | increased distress symptoms ([2]; human, in vivo): at least half of the patients reported some degree of increased distress symptoms
